Key:
ERK, Akt = assay: Western blot for pERK Y204, ERK, pAkt473 and Akt; format: cell-based, human
Description: (§1) Western blot. Cells were lysed in 25 mM Tris, 150 mM NaCl, 10% glycerol, 1% NP 40 and […] EDTA with a protease Mini-complete protease inhibitors (Roche) and a phosphatase inhibitor cocktail (PhosSTOP, Roche) at 4° C. for 20 minutes. Protein lysates were separated by SDS-PAGE, transferred to a nitrocellulose membrane and blocked with Odyssey Blocking Buffer (LiCor). Membranes were incubated with primary antibody overnight at 4° C. and Licor secondary antibodies at room temperature for 1 hour. Protein level intensity was measured with Image J.
(§2) The MAPK signaling cascade is among the key pathways known to interact with MTs. Both ERK1/2 interact with MTs; MT stabilization by paclitaxel increases ERK phosphorylation and, in turn, ERK pathway activation increases MT dynamics.

MDA-MB-231 cells [1] = assay: In vitro imaging of cell velocity on collagen; format: cell-based, human; conditions: 231-Control, 231-MENA, 231-MENA^INV; paclitaxel 1, 10 or 100 nM
Description: (§3) In vitro imaging. Glass bottom dishes were coated with Co11agen at 0.1 mg/mL diluted in PBS for 1 hour at 37° C. Cells expressing different MENA isoform were treated with paclitaxel at 1, 10 or 100 nM or vehicle and immediately plated on the glass bottom dishes. 30 minutes later, cells were imaged overnight, with one image acquired every 10 minutes for 16 hours on a Nikon spinning disk with a 20× objective and an Andor/NeoZyla camera. Individual cells were manually tracked using ImageJ and Manual Tracking plug-in. Data were analyzed using the chemotaxis tool developed by IBIDI. For analysis of time spent in cell division, the time between when the mother cell first rounds up, to when both daughter cells have spread out on substrate was measured. The percentage of successful cell divisions was quantified by counting the number of cell divisions that lead to two surviving daughter cells. Data are pooled from at least 50 cells tracked in three independent experiments.
(§4) MENA and MENA^INV drive increased cell motility and metastasis during tumor progression. Therefore, whether MENA isoform expression impacts cell migration and dissemination after paclitaxel treatment was examined.

microtubules (MT) = assay: Immunofluorescence ratio of Glu-MT (stable) to Tyr-MT (dynamic); format: cell-based, human
Description: Immunofluorescence. Glass bottom dishes (Mattek) were coated with Collagen at 0.1 mg/mL diluted in PBS and 50 μg/mL FN for 1 hour at 37° C. Cells were plated for 1 hour, and then treated with paclitaxel alone or in combination with MEKi for 24 hours. Cells were fixed for 20 minutes in 4% paraformaldehyde in PHEM buffer with 0.1% Gluteraldehyde, and then quenched with sodium borohydrate for 5 minutes. Cells were blocked with 2% BSA in TBS-0.1%TritonX-100 for 30 minutes, and incubated with primary antibodies and then secondary antibodies for 1 hour each, at room temperature. Z series of images were taken on an Applied Precision DeltaVision microscope using Softworx acquisition, an Olympus 60×1.4 NA plan apo objective and a Photometrics CoolSNAP HQ camera. Images were deconvolved using Deltavision Softworx software and objective specific point spread function. Images were analyzed with ImageJ, where the whole cell intensity levels of Tyr- or Glu-MT was measured. Images are pooled from at least 3 independent experiments.
Paclitaxel promotes cell death by increasing the stability of MTs, and pathways driving increased MT dynamics are known to promote resistance to taxanes. Therefore, MT structure and dynamics in MENA isoform expressing cells was examined during paclitaxel treatment. […] Post-translational modification of MTs can regulate their dynamics, and antibodies that detect such modifications can be used to infer the relative dynamics of MT populations; in particular, MT tyrosination indicates a dynamic MT state, while de-tyrosination of MTs is associated with increased stability. The relative abundance of stable (Glu-MT) vs. dynamic (Tyr-MT) MTs was measured in individual cells by immunofluorescence with anti-Glu-MT and anti-Tyr-MT antibodies (FIGS. 37A, 37B).
as §2

[2] = system: MDA-MB-231 xenograft tumors; assay: Multiphoton intravital imaging of motile tumor cells; format: in vivo, mouse
Description: Intravital imaging. Intravital multiphoton imaging was performed as described previously (Oudin M J, et al. Tumor cell-driven extracellular matrix remodeling enables haptotaxis during metastatic progression. Cancer Discov. 2016; Available from: www.ncbi.nlm.nih.gov/pubmed/26811325) using a 25×1.05 NA water immersion objective with correction lens. After exposing the tumor with a skin flap surgery, 30 minute movies were captured. The number of motile cells in each field of view were count in ten 30 minute time-lapse movies using ImageJ. Motile cells were cells who show any displacement of the nucleus and cell protrusion activity. Data were pooled from 2-4 mice per tumor group, with 4-10 fields imaged per mouse.
as §4

MDA-MB-231 cells [3] = assay: Time-lapse microscopy of cell division; format: cell-based, human; conditions: for increase in time spent in cell division: 10 nM paclitaxel vs vehicle
Description: as §3
One of the key steps in paclitaxel-induced cell death is cell arrest in the G2/M phases of the cell cycle. […] Time-lapse microscopy was performed to study the cell division phenotypes in more detail, and imaged cells expressing MENA isoforms while adherent on collagen (FIGS. 35D, 35E, 35F).

Mena = Mena expression in cultured cells after taxane treatment (Western blot, FACS of GFP); format: cell-based, human
Description: Taxol treatment induces increased Mena protein expression in vitro and in vivo. As high level of Mena or Mena^INV expression correlated with low response to Taxo, we hypothesized that Taxol treatment might affect Mena expression. […]. After 72 h of treatment with the drug, the expression level of Mena was 70% higher than in vehicle-treated cells.
as §1
Paclitaxel treatment selects for high MENA expression in vitro and in vivo. The Examples so far indicate that increased MENA or MENA^INV expression levels are associated with reduced responses to paclitaxel. The effect of paclitaxel treatment on levels of MENA expression in cell populations in vitro and in vivo was examined. First, endogenous MENA expression by Western Blot in 5 breast cancer cell lines that were exposed to 100 nM of paclitaxel or a vehicle control were analyzed (FIG. 33A).

[4] = 72 hours of paclitaxel treatment, all three cell lines

SMILES: CC(=O)O[C@H]1C(=O)[C@@]2(C)[C@H]([C@H](OC(=O)c3ccccc3)[C@]3(O)C[C@H](OC(=O)[C@H](O)[C@@H](NC(=O)c4ccccc4)c4ccccc4)C(C)=C1C3(C)C)[C@]1(OC(C)=O)CO[C@@H]1C[C@@H]2O [paclitaxel]
- total ERK levels (ERK, Akt; 72 hours of paclitaxel treatment): unchanged
- pERK Y204 levels (ERK, Akt; 72 hours of paclitaxel treatment (10 or 100 nM)): 231-MENA and 231-MENA^INV cells had higher levels of pERK Y204 relative to 231-Control cells
- pAkt473 levels (ERK, Akt; [4]): decreased pAkt473 levels equally
- total Akt levels (ERK, Akt; [4]): without significantly changing
- cell velocity in vitro (MDA-MB-231 cells [1]): decreased velocity
- relative ratio of stable (Glu-MT) to dynamic (Tyr-MT) MTs (microtubules (MT); 231-Control cells, 10 nM paclitaxel 24 hours): significant increase
- relative levels of stable to dynamic MTs (microtubules (MT); 231-MENA and 231-MENA^INV cells, 10 nM paclitaxel 24 hours): no change
- stable MTs relative to dynamic MTs, either drug alone (microtubules (MT); 231-MENA^INV cells, single drug, 24 hours): had no effect
- number of cells moving within tumors ([2]; 231-Control tumors): significantly reduced
- motility of tumor cells in vivo ([2]; 231-MENA and 231-MENA^INV tumors): not affected
- decrease in the number of successful divisions (MDA-MB-231 cells [3]; 231-Control cells, 10 nM paclitaxel): 40%
- increase in time spent in cell division (MDA-MB-231 cells [3]; 231-Control cells): four-fold
- increase in time spent in cell division (MDA-MB-231 cells [3]; 231-MENA and 231-MENA^INV cells): two-fold
- successful cell divisions (MDA-MB-231 cells [3]; paclitaxel treated 231-MENA and 231-MENA^INV cells): over 90%
- endogenous MENA expression by Western Blot (Mena; 5 breast cancer cell lines, 100 nM paclitaxel, 72 hours, vs vehicle): some cell lines (MDA-MB-231 and MDA-MB-175VII) showed increased MENA expression
- FACS analysis of GFP expression levels after taxane treatment (Mena; MDA-MB-231 populations expressing GFP, GFP-MENA or GFP-MENA^INV): selected for high-Mena^INV-GFP expressing cells
- expression level of Mena higher than in vehicle-treated cells (Mena; after 72 h of treatment): 70%

From patent US20170168056A1, “METHODS AND COMPOSITIONS FOR DETECTING AND MODULATING CANCER CELLS” (Massachusetts Institute of Technology, priority 2015, published 2017)
